Legend:
corn = assay: Test B pre/postemergence corn; type: in vivo, Zea mays
How it was run: (§1)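 Test chemicals in a non-phytotoxic solvent mixture with surfactant were sprayed preemergence onto planted seeds and postemergence onto plants 2 to 18 cm tall (1- to 4-leaf stage). After twelve to sixteen days in a greenhouse, injury was visually rated against untreated controls from 0 (no effect) to 10 (complete control).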

velvetleaf = assay: Test B pre/postemergence velvetleaf; type: in vivo, Abutilon theophrasti
How it was run: as §1

surinam grass = assay: Test B pre/postemergence surinam grass; type: in vivo, Brachiaria decumbens
How it was run: as §1

crabgrass = assay: Test B pre/postemergence crabgrass; type: in vivo, Digitaria sanguinalis
How it was run: as §1

purple nutsedge = assay: Test B pre/postemergence purple nutsedge; type: in vivo, Cyperus rotundus
How it was run: as §1

pigweed = assay: Test B pre/postemergence pigweed; type: in vivo, Amaranthus retroflexus
How it was run: as §1

blackgrass = assay: Test B pre/postemergence blackgrass; type: in vivo, Alopecurus myosuroides
How it was run: as §1

rice = assay: Test B flood test rice; type: in vivo, Oryza sativa
How it was run: (§2)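 Plants were grown to the 2-leaf stage before treatment with test chemical, then held in a greenhouse for twelve to sixteen days. Injury was visually rated against untreated controls on a 0–10 scale, where 0 is no effect and 10 is complete control.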

rape = assay: Test B pre/postemergence rape; type: in vivo, Brassica napus
How it was run: as §1

morningglory = assay: Test B pre/postemergence morningglory; type: in vivo, Ipomoea hederacea
How it was run: as §1

bedstraw = assay: Test B pre/postemergence bedstraw; type: in vivo, Galium aparine
How it was run: as §1

wild oat = assay: Test B pre/postemergence wild oat; type: in vivo, Avena fatua
How it was run: as §1

soybean = assay: Test B pre/postemergence soybean; type: in vivo, Glycine max
How it was run: as §1

duck salad = assay: Test B flood test duck salad; type: in vivo, Heteranthera limosa
How it was run: as §2

wheat = assay: Test B pre/postemergence wheat; type: in vivo, Triticum aestivum
How it was run: as §1

giant foxtail = assay: Test B pre/postemergence giant foxtail; type: in vivo, Setaria faberii
How it was run: as §1

[1] = Postemergence, Rate 62 g/ha, scale 0 to 10, 0 is no effect, 10 is complete control
[2] = Postemergence, Rate 250 g/ha, scale 0 to 10, 0 no effect, 10 complete control
[3] = Preemergence, Rate 62 g/ha, scale 0 to 10, 0 is no effect, 10 is complete control
[4] = Preemergence, Rate 125 g/ha, scale 0 to 10 (0 no effect, 10 complete control)
[5] = Preemergence, Rate 250 g/ha, scale of 0 to 10 where 0 is no effect and 10 is complete control
[6] = Preemergence, Rate 500 g/ha, scale 0 (no effect) to 10 (complete control)
[7] = Rate 125 g/ha, Postemergence, scale 0 to 10, 0 no effect, 10 complete control
[8] = Rate 500 g/ha, Postemergence, 0 to 10 scale (0 no effect, 10 complete control)
[9] = Rate 500 g/ha, Postemergence section of Table B, 0 to 10 scale (0 no effect, 10 complete control)
[10] = flood test, listed under Postemergence, Rate 250 g/ha, scale 0 to 10, 0 no effect, 10 complete control

In the case of `CC(C)N(C(=O)n1oc(=O)n(-c2ccccc2)c1=O)c1ccc(F)cc1` [Compound 38], the “Corn plant response rating” value (corn; [1]) is reported as 0, the “Corn plant response rating” value (corn; [2]) is reported as 0 and the “Plant response rating, Corn” value (corn; [3]) is reported as 0. For the same compound, the “Plant response rating, Corn” value (corn; [4]) was 0, the “Plant response rating, Corn” value (corn; [5]) was 0 and the “Corn plant response rating” value (corn; [6]) was 0. For the same compound, the “Corn plant response rating” value (corn; [7]) was 0, the “Corn plant response rating” value (corn; [8]) was 0 and the “Velvetleaf plant response rating” value (velvetleaf; [1]) was 0. The “Velvetleaf plant response rating” value (velvetleaf; [2]) was 0, the “Plant response rating, Velvetleaf” value (velvetleaf; [3]) was 0 and the “Plant response rating, Velvetleaf” value (velvetleaf; [4]) was 0. For the same compound, the “Plant response rating, Velvetleaf” value (velvetleaf; [5]) was 0, the “Velvetleaf plant response rating” value (velvetleaf; [6]) was 0 and the “Velvetleaf plant response rating” value (velvetleaf; [7]) was 0. For the same compound, the “B. signalgrass plant response rating” value (surinam grass; [1]) was 0, the “B. signalgrass plant response rating” value (surinam grass; [2]) was 0 and the “Plant response rating, B. signalgrass” value (surinam grass; [3]) was 3. For the same compound, the “Plant response rating, B. signalgrass” value (surinam grass; [4]) was 4, the “Plant response rating, B. signalgrass” value (surinam grass; [5]) was 8 and the “B. signalgrass plant response rating” value (surinam grass; [6]) was 8. The “B. signalgrass plant response rating” value (surinam grass; [7]) was 0, the “B. signalgrass plant response rating” value (surinam grass; [8]) was 0 and the “Crabgrass plant response rating” value (crabgrass; [1]) was 0. For the same compound, the “Crabgrass plant response rating” value (crabgrass; [2]) was 8, the “Plant response rating, Crabgrass” value (crabgrass; [3]) was 2 and the “Plant response rating, Crabgrass” value (crabgrass; [4]) was 5. For the same compound, the “Plant response rating, Crabgrass” value (crabgrass; [5]) was 10, the “Crabgrass plant response rating” value (crabgrass; [6]) was 10 and the “Crabgrass plant response rating” value (crabgrass; [7]) was 7. The “Crabgrass plant response rating” value (crabgrass; [8]) was 9, the “Nutsedge plant response rating” value (purple nutsedge; [1]) was 0 and the “Nutsedge plant response rating” value (purple nutsedge; [2]) was 0. The “Plant response rating, Nutsedge” value (purple nutsedge; [3]) was 0, the “Plant response rating, Nutsedge” value (purple nutsedge; [4]) was 0 and the “Plant response rating, Nutsedge” value (purple nutsedge; [5]) was 0. For the same compound, the “Nutsedge plant response rating” value (purple nutsedge; [6]) was 0, the “Nutsedge plant response rating” value (purple nutsedge; [7]) was 0 and the “Nutsedge plant response rating” value (purple nutsedge; [8]) was 0. For the same compound, the “Redroot pigweed plant response rating” value (pigweed; [1]) was 0, the “Redroot pigweed plant response rating” value (pigweed; [2]) was 0 and the “Plant response rating, Redroot pigweed” value (pigweed; [3]) was 2. For the same compound, the “Plant response rating, Redroot pigweed” value (pigweed; [4]) was 10, the “Plant response rating, Redroot pigweed” value (pigweed; [5]) was 10 and the “Redroot pigweed plant response rating” value (pigweed; [6]) was 10. For the same compound, the “Redroot pigweed plant response rating” value (pigweed; [7]) was 0, the “Redroot pigweed plant response rating” value (pigweed; [8]) was 0 and the “Blackgrass plant response rating” value (blackgrass; [1]) was 0. For the same compound, the “Blackgrass plant response rating” value (blackgrass; [2]) was 7, the “Plant response rating, Blackgrass” value (blackgrass; [3]) was 4 and the “Plant response rating, Blackgrass” value (blackgrass; [4]) was 6. For the same compound, the “Plant response rating, Blackgrass” value (blackgrass; [5]) was 10, the “Blackgrass plant response rating” value (blackgrass; [6]) was 10 and the “Blackgrass plant response rating” value (blackgrass; [7]) was 3. The “Blackgrass plant response rating” value (blackgrass; [8]) was 8, the “Rice plant response rating” value (rice; [1]) was 0 and the “Rice plant response rating” value (rice; Rate 125 g/ha, Postemergence section (flood test species), scale 0 to 10, 0 no effect, 10 complete control) was 0. For the same compound, the “Rice plant response rating” value (rice; [9]) was 0, the “Rice plant response rating” value (rice; [10]) was 0 and the “Rape plant response rating” value (rape; [1]) was 0. For the same compound, the “Rape plant response rating” value (rape; [2]) was 0, the “Plant response rating, Rape” value (rape; [3]) was 0 and the “Plant response rating, Rape” value (rape; [4]) was 0. The “Rape plant response rating” value (rape; [6]) was 0, the “Rape plant response rating” value (rape; [7]) was 0 and the “Rape plant response rating” value (rape; [8]) was 0. For the same compound, the “Morningglory plant response rating” value (morningglory; [1]) was 0, the “Morningglory plant response rating” value (morningglory; [2]) was 1 and the “Plant response rating, Morningglory” value (morningglory; [3]) was 0. For the same compound, the “Plant response rating, Morningglory” value (morningglory; [4]) was 0, the “Plant response rating, Morningglory” value (morningglory; [5]) was 0 and the “Morningglory plant response rating” value (morningglory; [6]) was 0. The “Morningglory plant response rating” value (morningglory; [7]) was 0, the “Morningglory plant response rating” value (morningglory; [8]) was 10 and the “Bedstraw plant response rating” value (bedstraw; [1]) was 0. The “Bedstraw plant response rating” value (bedstraw; [2]) was 0, the “Plant response rating, Bedstraw” value (bedstraw; [3]) was 0 and the “Plant response rating, Bedstraw” value (bedstraw; [4]) was 0. The “Plant response rating, Bedstraw” value (bedstraw; [5]) was 0, the “Bedstraw plant response rating” value (bedstraw; [6]) was 0 and the “Bedstraw plant response rating” value (bedstraw; [7]) was 0. The “Bedstraw plant response rating” value (bedstraw; [8]) was 5, the “Wild oats plant response rating” value (wild oat; [1]) was 0 and the “Wild oats plant response rating” value (wild oat; [2]) was 0. The “Plant response rating, Wild oats” value (wild oat; [4]) was 6, the “Plant response rating, Wild oats” value (wild oat; [5]) was 6 and the “Wild oats plant response rating” value (wild oat; [6]) was 8. The “Wild oats plant response rating” value (wild oat; [7]) was 0, the “Soybean plant response rating” value (soybean; [1]) was 0 and the “Soybean plant response rating” value (soybean; [2]) was 0. For the same compound, the “Plant response rating, Soybean” value (soybean; [3]) was 0, the “Plant response rating, Soybean” value (soybean; [4]) was 0 and the “Plant response rating, Soybean” value (soybean; [5]) was 0. For the same compound, the “Soybean plant response rating” value (soybean; [6]) was 2, the “Soybean plant response rating” value (soybean; [7]) was 0 and the “Ducksalad plant response rating” value (duck salad; [1]) was 0. For the same compound, the “Ducksalad plant response rating” value (duck salad; [9]) was 0, the “Ducksalad plant response rating” value (duck salad; [10]) was 0 and the “Wheat plant response rating” value (wheat; [1]) was 0. For the same compound, the “Wheat plant response rating” value (wheat; [2]) was 0, the “Plant response rating, Wheat” value (wheat; [3]) was 0 and the “Plant response rating, Wheat” value (wheat; [4]) was 0. For the same compound, the “Plant response rating, Wheat” value (wheat; [5]) was 0, the “Wheat plant response rating” value (wheat; [6]) was 0 and the “Wheat plant response rating” value (wheat; [7]) was 0. For the same compound, the “Giant foxtail plant response rating” value (giant foxtail; [1]) was 0, the “Giant foxtail plant response rating” value (giant foxtail; [2]) was 4 and the “Plant response rating, Giant foxtail” value (giant foxtail; [3]) was 10. For the same compound, the “Plant response rating, Giant foxtail” value (giant foxtail; [4]) was 10, the “Plant response rating, Giant foxtail” value (giant foxtail; [5]) was 10 and the “Giant foxtail plant response rating” value (giant foxtail; [6]) was 10. For the same compound, the “Giant foxtail plant response rating” value (giant foxtail; [7]) was 2 and the “Giant foxtail plant response rating” value (giant foxtail; [8]) was 8.

— patent US6737383B1, “Herbicidal oxadiazolidines” (priority 1999, dated 2004)
